Results published in paper PMC9977398, “Next-generation membrane-active glycopeptide antibiotics that also inhibit bacterial cell division” (Chemical Science, 2023).
Where two headings read alike, the source gives them in different places.

Columns and labels:
[1] = mice, intravenous injection; cited from earlier work
[2] = test system: MRSA ATCC 33591; test: Activity in blood plasma and liver homogenate; assay type: cell-based, S. aureus; conditions: for MIC: Staphylococcus aureus
Method: Table S1: Activity of VanQAmC10 in mouse plasma and liver homogenate against MRSA […]
MIC of VanQAmC10 post incubation in (μM) […]
Activity in blood plasma and liver homogenate
To examine the susceptibility of VanQAmC10 to serum proteases, the antibacterial activities was tested in the presence of 50% of plasma and liver homogenate. Briefly, 250 μL of VanQAmC10 was added into 250 μL of fresh […] plasma and incubated at 37 °C. An aliquot of the samples 3 h and 24h post-incubation was diluted in 0.9% saline and the antibacterial activity (MIC) were determined against MRSA and VRE by following the same protocol as described above for the antibacterial assay. […]
50 μL of ∼10^6 CFU/mL bacterial inoculum (MRSA ATCC33591) was injected into the thigh. 1 h post-inoculation, animals were treated intraperitoneally twice with 12 h intervals with saline, vancomycin (12 mg kg−1), and VanQAmC10 (12 mg kg−1). 24 h post the first treatment, the animals were euthanized (using ether) and the thighs were collected aseptically. The thigh tissue was weighed and homogenized. The dilutions of the homogenate were plated onto agar plates, which were incubated overnight at about 37 °C. […]
In-vivo activity in murine burn wound infectionmodel 10-12

[3] = test system: VRSA 1 (vancomycin-resistant S. aureus); design: method as in PMID 32195571; conditions: previously reported; cited from earlier work
[4] = test system: carbapenem-resistant A. baumannii; test: Murine chronic burn-wound infection model; assay type: in vivo, mice; conditions: 30 mg kg^−1 topically for 5 days; untreated 8 log CFU g^−1
Method: Fig. 6 (A) Propensity of vancomycin and VanQAmC10 to induce resistance in MRSA upon serial exposure to sub-MIC concentrations; (B) (i) experimental design for in vivo efficacy study in a murine thigh infection model, (ii) in vivo efficacy of VanQAmC10 and vancomycin against the multidrug-resistant methicillin-resistant S. aureus (MRSA) (n = 3/dose). Antibiotics were administered intraperitoneally twice at 12 h intervals at a dose of 12 mg kg^−1. (C) (i) Experimental design for in vivo efficacy study in murine burn wound infection model, (ii) in vivo efficacy of VanQAmC10 and colistin against the carbapenem-resistant A. baumannii (n = 5/dose, 1 mouse died in untreated control). VanQAmC10 and colistin were treated topically at 30 mg kg^−1 for 5 days (‘***’ indicates p < 0.0001, ‘**’ indicates p < 0.001, ‘*’ p < 0.05, p = 0.08 (n.s.) for VanQAmC10 with respect to vancomycin).
Further, the efficacy of VanQAmC10 (8) was tested in a chronic burn-wound infection model of A. baumannii.[40] Chronic burn wounds on the back of mice were infected with A. baumannii. […] Infected mice were treated with 30 mg kg^−1 of VanQAmC10 and colistin for five days consecutively. The bacterial load in the untreated group increased to 8 log CFU g^−1 six days post-infection. […] The use of colistin is however limited due to its toxicity and bacteria easily develop resistance to it. […]

[5] = test system: MDCK cells; assay type: cell-based; conditions: 24 h, Alamar blue
Method: acid group of vancomycin to yield the compounds 1-10. All the derivatives of vancomycin were purified by reverse phase HPLC to about 90 % purity with 65-75 % yield and characterized by HR-MS and 1H-NMR.
Figure S1. Cytotoxicity of VanQAmC10 against MDCK cells. The CC50 (defined as the concentration at which the viability of compound treated cells reduced to 50%) was greater […]
(1 picture or pasted object on this page, not shown here)
50 μL of serially diluted compound was added into 96 well microtiter plates. Freshly drawn, heparanized human blood was centrifuged down to obtain the erythrocytes and re-suspended to 5 vol % in PBS (pH 7.4). […] 100 μL of the supernatant from each well were transferred into fresh microtiter plates, and A540 was measured.
% haemolysis = (A - A0)/(Atotal -A0) × 100, where A is the absorbance of the test well, A 0 the absorbance of the negative controls (without compound), and A total the absorbance of 100 % hemolysis wells (with Triton X -100), all at 540 nm. […]
2 h post incubation with dye, the absorbance was measured at 570 nm using 600 nm as […]
The bactericidal activity of the compounds was evaluated with the time kill kinetics assay.
MRSA ATCC 33591 cells were cultured in nutrient media at 37°C for 6 h. […] The bacterial colonies were counted and results are represented in logarithmic scale, i.e. log10 (CFU/mL). […]

[6] = test system: VRSA 4 (vancomycin-resistant S. aureus); design: method as in PMID 32195571; conditions: previously reported; cited from earlier work
[7] = test system: RAW 264.7 cells; design: method as in PMID 32195571; conditions: cited from earlier work
[8] = test system: E. coli; test: MIC against E. coli; assay type: cell-based; conditions: Escherichia coli
[9] = test system: VRSA; design: method as in PMID 32195571; conditions: strain not specified, Fig. 1 legend; MIC against VRSA previously reported; cited from earlier work

CCCCCCCCCCNC(=O)C[N+](C)(C)CCCNC(=O)C1NC(=O)C2NC(=O)C(NC(=O)C3NC(=O)C(CC(N)=O)NC(=O)C(NC(=O)C(CC(C)C)NC)C(O)c4ccc(c(Cl)c4)Oc4cc3cc(c4OC3OC(CO)C(O)C(O)C3OC3CC(C)(N)C(O)C(C)O3)Oc3ccc(cc3Cl)C2O)c2ccc(O)c(c2)-c2c(O)cc(O)cc21 (stereo not drawn) [VanQAmC10 (8)]
LD50 [1]: 70 mg/kg | change of MIC in plasma and liver homogenate ([2]; MRSA): remained unchanged | MIC ([2]; read-out: MIC post incubation in plasma): 0.4 µM | MIC ([2]; MRSA ATCC 33591, read-out: MIC post incubation in liver homogenate): 0.4 µM | MIC ([2]; MRSA ATCC 33591, read-out: MIC post incubation in media): 0.4 µM | Minimum inhibitory concentration, VRSA 1 [3]: 3.1 µM | lower bacterial load as compared to the untreated mice [4]: 2.2 log CFU g^−1 | CC50 [5]: > 64 µM | Minimum inhibitory concentration, VRSA 4 [6]: 1.6 to 3.1 µM | concentration up to which non-toxic [7]: 40 µM | MIC [8]: 16 µM | MIC against VRSA [9]: 1.6 µM
